“Also recorded” adds a separate entry of the source. Marks after values point to notes of the source that are not given here.
Experiment: Clinical comparison of patient groups: plasma MG, D-lactate and HbA1c in type 2 diabetic subjects receiving low or high daily dosages of metformin
Format: in vivo, human
Conditions: for DL (D-lactate) / HbA1c / MG (plasma methylglyoxal level): diabetic subjects
Source text: The differences noted above are shown in the following summary of clinical results utilizing patient groups of individuals free of diabetes, those having diabetes but receiving no metformin, those having diabetes and receiving one gram or less of metformin daily and those receiving more than a gram of metformin daily, respectively. In Table 1, the number of patients in each group is noted as are the levels of plasma MG, DL(D-lactate) and […] (HbA1c).

CN(C)C(=N)N=C(N)N [Metformin, N,N-dimethylimidocarbonimide diamide]
DL (D-lactate) (metformin >1 g/day, n=13): 13.4 ± 4.6^c μmol/l
HbA1c (metformin >1 g/day, n=13): 8.3 ± 1.0%
MG (plasma methylglyoxal level) (metformin >1 g/day, n=13): 158.4 ± 44.2^b nmol/l
DL (D-lactate) (metformin ≦1 g/day, n=17): 13.8 ± 7.7^c μmol/l
HbA1c (metformin ≦1 g/day, n=17): 8.0 ± 1.1%
MG (plasma methylglyoxal level) (metformin ≦1 g/day, n=17): 210.9 ± 51.0 nmol/L
plasma level of MG, result in words (group taking high dosages of metformin, versus low dosage group and diabetics without metformin): significant lowering of plasma levels of MG; also recorded: significantly lower plasma level of MG
difference in glycemic control between high and low dosages (high versus low dosage groups of metformin): little difference in glycemic control
levels of D-lactate, result in words (metformin administration versus diabetic control group receiving no metformin, no significant difference between high and low dosages): increased

Reference: US20010031790A1, “Treatment for complications of type 2 diabetes” (priority 1999, published 2001)
